# Results reported in paper PMC11356900, “Synthesis, Structural Properties and Biological Activities of Novel Hydrazones of 2-, 3-, 4-Iodobenzoic Acid” (Molecules, 2024).
# Read-outs that look alike come from different tables or passages of the source.
# Assays:
# [1] = test system: Bacillus subtilis ATCC 6633; assay: Broth microdilution MIC/MBC; conditions: ATCC6633
# [2] = test system: Candida albicans ATCC 10231; assay: Broth microdilution MIC/MFC; assay type: cell-based
# Source text: (§1) Procedures of in vitro antimicrobial assays are described in Supplementary Materials.
# (§2) 2. Microbiology – in vitro antimicrobial activity assays […]
# (§3) using the broth microdilution method according to the European Committee on Antimicrobial Susceptibility Testing (EUCAST) and Clinical and Laboratory Standards Institute guidelines against a panel of reference and clinical or saprophytic strains of mi croorganisms, including the Gram-positive bacteria: Staphylococcus aureus ATCC 43300 (Methi-cillin Resistant S. aureus – MRSA), Staphylococcus aureus ATCC 29213 (Methicillin Susceptible S. aureus – MSSA), Staph-ylococcus epidermidis ATCC 12228, Micrococcus luteus ATCC 10240, Bacillus subtilis ATCC 6633 and Bacillus cereus ATCC 10876), Gram-negative bacteria: Bordetella bronchiseptica ATCC 4617, Escherichia coli ATCC 25922, Klebsiella pneumoniae ATCC 13883, Proteus mirabilis ATCC 12453, Salmonella typhimurium ATCC 14028 and Pseudomonas aeruginosa ATCC 9027, and fungi belonging to yeasts: Candida albicans ATCC 10231, Candida albicans ATCC 2091, Candida parapsilosis ATCC 22019, Candida glabrata ATCC 90030 and Candida krusei ATCC 14243. The microorganisms belonging to ATCC originated from American Type Culture Collection, routinely used for the evaluation of antimicrobials. All the used microbial cultures were first subcultured on nutrient agar or Sabouraud agar at 35°C for 18-24 h or 30°C for 24-48 h for bacteria […]
# (§4) The surface of Mueller-Hinton agar (for bacteria) and RPMI 1640 with MOPS (for fungi) were inoculated with the suspensions of bacterial or fungal species. Microbial suspensions were prepared in sterile saline with an optical density of McFarland standard scale 0.5. The samples containing the compounds were dissolved in dimethyl sulfoxide (DMSO).
# (§5) Furthermore, the bacterial and fungal suspensions put onto the Petri dishes with solid media containing 2 mg/mL of the tested compounds followed were incubated at 37°C for 24h and 30°C for 48h for bacteria and fungi, respectively.
# (§6) The inhibition of microbial growth was estimated comparing with a control culture prepared without any tested sam- […]
# (§7) antifungal compounds, respectively.
# (§8) Subsequently, MIC (Minimal Inhibitory Concentration) of the compounds was examined by the microdilution broth method, using their two-fold dilutions in Mueller-Hinton broth (for bacteria) and RPMI 1640 broth with MOPS (for fungi) prepared in the 96-well polystyrene plates. The final concentrations of the compounds ranged from 1000 to 0.488 µg/mL. Microbial suspensions were prepared in 0.85% NaCl with an optical density of 0.5 McFarland standard. Next each bacterial or fungal suspension was added per each well containing broth and various concentrations of the exam-ined compounds. After incubation, the MIC was assessed spectrophotometrically as the lowest concentration of the […]
# (§9) Appropriate DMSO, growth and sterile controls were carried out. The medium with no tested substances was used as a control The MBC (Minimal Bactericidal Concentration) and MFC (Minimal Fungicidal Concentration) are defined as the lowest concentration of the compounds that is required to kill a particular bacterial or fungal species. The MBC/MFC was determined by removing the culture used for the MIC determination from each well and spotted onto the appro-priate agar medium. The plates were incubated under appropriate conditions for bacteria and fungi. The lowest com-pounds concentration with no visible growth observed was assessed as a bactericidal/fungicidal concentration. All the experiments were repeated three times and the representative data are presented.
# (§10) 1. European Committee for Antimicrobial Susceptibility Testing (EUCAST) Determination of minimum inhibitory con-centrations (MICs) of antibacterial agents by broth dilution. EUCAST discussion document E. Dis 5.1. Clin. Microbiol.
# (§11) 2. Clinical and Laboratory Standards Institute. Reference method for broth dilution antifungal susceptibility testing of […]
# [3] = test system: Candida albicans ATCC 2091; assay: Broth microdilution MIC/MFC; assay type: cell-based
# Source text: as §1, §2, §3, §4, §5, §6, §7, §8, §9, §10, §11
# [4] = test system: Candida glabrata ATCC 90030; assay: Broth microdilution MIC/MFC; assay type: cell-based
# Source text: as §1, §2, §3, §4, §5, §6, §7, §8, §9, §10, §11
# [5] = test system: Candida krusei ATCC 14243; assay: Broth microdilution MIC/MFC; assay type: cell-based
# Source text: as §1, §2, §3, §4, §5, §6, §7, §8, §9, §10, §11
# [6] = test system: Candida parapsilosis ATCC 22019; assay: Broth microdilution MIC/MFC; assay type: cell-based
# Source text: as §1, §2, §3, §4, §5, §6, §7, §8, §9, §10, §11
# Candida spp. = assay: Broth microdilution, summary over reference yeasts; assay type: cell-based; conditions: reference yeasts from Candida spp.
# Source text: as §1, §2, §3, §4, §5, §6, §7, §8, §9, §10, §11
# [7] = test system: Staphylococcus aureus ATCC 25923; assay: Broth microdilution MIC/MBC; conditions: Staphylococcus aureus, ATCC25923
# [8] = test system: Staphylococcus aureus ATCC 29213; assay: Broth microdilution MIC/MBC; conditions: ATCC29213
# [9] = test system: Staphylococcus aureus ATCC 43300; assay: Broth microdilution MIC/MBC; conditions: ATCC43300 / MRSA
# [10] = test system: Staphylococcus epidermidis ATCC 12228; assay: Broth microdilution MIC/MBC; conditions: ATCC12228
# [11] = test system: Micrococcus luteus ATCC 10240; assay: Broth microdilution MIC/MBC; conditions: Micrococcus luteus, ATCC10240
# [12] = test system: Bacillus cereus ATCC 10876; assay: Broth microdilution MIC/MBC; conditions: Bacillus cereus, ATCC10876
# Gram-positive bacteria = assay: Broth microdilution, summary over reference Gram-positive bacteria; assay type: cell-based; conditions: reference Gram-positive bacteria / studied bacteria
# Source text: as §1, §2, §3, §4, §5, §6, §7, §8, §9, §10, §11
# [13] = Nakaseomyces glabratus, ATCC90030, read-out: MIC
# [14] = Pichia kudriavzevii, ATCC14243, read-out: MIC
# [15] = Lodderomyces parapsilosis, ATCC22019, read-out: MIC
MIC [1] [µg/mL],Structure (SMILES),"MFC ([2]; ATCC10231, read-out: MFC) [µg/mL]","MIC ([2]; ATCC10231, read-out: MIC) [µg/mL]","MIC ([3]; ATCC2091, read-out: MIC) [µg/mL]","MIC [4, 13] [µg/mL]","MIC [5, 14] [µg/mL]","MIC [6, 15] [µg/mL]",antifungal activity in words (Candida spp.),melting point [°C],MIC [7] [µg/mL],MIC [8] [µg/mL],MIC [9] [µg/mL],MIC [10] [µg/mL],MIC [11] [µg/mL],MIC [12] [µg/mL],antibacterial activity in words (Gram-positive bacteria),further results
62.5,"CC1(C)S[C@@H]2[C@H](NC(=O)[C@H](N)c3ccccc3)C(=O)N2[C@H]1C(=O)O [APC, ampicillin, reference compound]",–,–,–,–,–,–,–,–,–,–,–,–,–,–,–,–
–,"C[C@@H]1[C@H](O)[C@@H](C)/C=C/C=C/CC/C=C/C=C/C=C/C=C/C(O[C@H]2O[C@H](C)[C@@H](O)[C@H](N)[C@@H]2O)CC2O[C@](O)(CC(O)C(O)CCC(O)CC(O)CC(O)CC(=O)O[C@H]1C)CC(O)C2C(=O)O (stereo partly drawn) [NY*, nystatin, reference compound]",–,–,–,–,–,–,–,–,–,–,–,–,–,–,–,MFC [2]: 0.48 µg/mL; MFC/MIC [2]: 1; MIC [2]: 0.48 µg/mL; MFC [3]: 0.24 µg/mL; MFC/MIC [3]: 1; MIC [3]: 0.24 µg/mL; MFC [4]: 0.48 µg/mL; MFC/MIC [4]: 2; MIC [4]: 0.24 µg/mL; MFC [5]: 0.24 µg/mL; MFC/MIC [5]: 1; MIC [5]: 0.24 µg/mL; MFC [6]: 0.48 µg/mL; MFC/MIC [6]: 2; MIC [6]: 0.24 µg/mL
1000,"O=C(N/N=C/c1cccc([N+](=O)[O-])c1O)c1ccccc1I [Compound 7, N-[(2-hydroxy-3-nitrophenyl)methylidene]-2-iodobenzohydrazide]",> 1000,1000,> 1000,> 1000,> 1000,> 1000,mild activity or were inactive,240 to 245,500,> 1000,> 1000,125,1000,> 1000,–,MBC [7]: > 1000 µg/mL; MBC [10]: 1000 µg/mL; MBC [11]: > 1000 µg/mL; MBC [1]: > 1000 µg/mL
–,"O=C(N/N=C/c1ccccc1O)c1cccc(I)c1 [Compound 16, N-[(2-hydroxyphenyl)methylidene]-3-iodobenzohydrazide]",–,–,–,–,–,–,–,201 to 203,–,–,–,–,–,–,no activity,–

Structure (SMILES),MIC [1] [µg/mL],"MFC ([2]; ATCC10231, read-out: MFC) [µg/mL]","MIC ([2]; ATCC10231, read-out: MIC) [µg/mL]","MIC ([3]; ATCC2091, read-out: MIC) [µg/mL]","MIC [4, 13] [µg/mL]","MIC [5, 14] [µg/mL]","MIC [6, 15] [µg/mL]",antifungal activity in words (Candida spp.),melting point [°C],MIC [7] [µg/mL],MIC [8] [µg/mL],MIC [9] [µg/mL],MIC [10] [µg/mL],MIC [11] [µg/mL],MIC [12] [µg/mL],antibacterial activity in words (Gram-positive bacteria),further results
"O=C(N/N=C/c1cc(O)ccc1O)c1ccccc1I [Compound 11, N-[(2,5-dihydroxyphenyl)methylidene]-2-iodobenzohydrazide]",> 1000,> 1000,1000,> 1000,1000,> 1000,> 1000,mild activity or were inactive,211 to 214,> 1000,> 1000,> 1000,> 1000,> 1000,> 1000,no antimicrobial effect,"MFC ([4]; Nakaseomyces glabratus, ATCC90030, read-out: MFC): > 1000 µg/mL"
